Reference: article PMC7916974 (Viruses, 2021)
Where two headings read alike, the source gives them in different places.

How the values were obtained:
[1] = tested on: A/Weiss/43 H1N1; assay: Viral NP mRNA in lungs of infected mice (qRT-PCR); assay type: in vivo, BALB/c mice; conditions: two, four and six days post-infection
[2] = in vitro; assay type: cell-based; conditions: human
[3] = tested on: A/Weiss/43 H1N1; assay type: cell-based, influenza A virus
[4] = tested on: A/Weiss/43 H1N1
[5] = tested on: influenza A virus; assay type: cell-based
[6] = tested on: A/Virginia/ATCC2/2009 H1N1; assay: microbe, parasite or virus in culture; assay type: cell-based; conditions: Influenza A virus, MDCK, 72 h
[7] = tested on: A549 cells infected with A/Weiss/43 H1N1; assay type: cell-based; conditions: 24 h post-infection
[8] = tested on: A/Weiss/43 H1N1; assay: Infected mouse model: lung index, symptoms; assay type: in vivo, BALB/c mice; conditions: for clinical symptoms of infected mice: intragastric once a day for six days
[9] = tested on: A/California/2/2014 H3N2; assay: microbe, parasite or virus in culture; assay type: cell-based; conditions: Influenza A virus, H3N2, MDCK, 72 h
[10] = tested on: A/Weiss/43 H1N1; assay: microbe, parasite or virus in culture; conditions: Influenza A virus, H1N1, MDCK, 72 h, read-out: EC50 (50% effective concentration)
[11] = tested on: A/Weiss/43 H1N1-induced apoptosis in A549 cells; assay type: cell-based; conditions: 24 h post-infection
[12] = tested on: IAV; assay: microbe, parasite or virus in culture; assay type: cell-based; conditions: Influenza A virus, ATCC2|H1N1|H3N2, MDCK, read-out: EC50 values (range over IAV strains)
[13] = tested on: A/Weiss/43 H1N1; assay type: cell-based, influenza A virus; conditions: 6.25–100 µM
[14] = Cytotoxicity assay (MTT), MDCK cells; assay type: cell-based, canine; conditions: dog; for CC50 at 72 h: MDCK cells, MTT, read-out: CC50 (50% cytotoxic concentration)
[15] = tested on: A549 cells infected with A/Weiss/43 H1N1; assay type: cell-based; conditions: 24 h
[16] = tested on: pro-inflammatory cytokines (TNF-α, IL-1β, IL-6, and IL-8); assay: Cytokine mRNA in lungs of infected mice (qRT-PCR); assay type: in vivo, BALB/c mice; conditions: two, four and six days post-infection
[17] = tested on: influenza A virus; assay type: cell-based; remark: listed apart in the source
[18] = 50 mg/kg/d intragastric, six days post infection
[19] = 100 mg/kg/d intragastric, six days post infection

COC1=C(c2ccc(Cl)cc2)C(=O)OC1(C)COS(=O)(=O)Cc1ccccc1 (stereo not shown) [Compound 3D]
expression of viral NP mRNA in IAV infected lungs [1]: decreased the expression of viral NP mRNA in a dose-dependent manner
CC50 at 72 h [2]: 309 ± 9.96 µM
viability at 72 h, 800 µM [2]: ~40%
virus titers of A549 cells [3]: significantly decreased
SI (ratio of CC50 to EC50) [4]: 29.68
antiviral activity against A/Weiss/43 H1N1 (in words) [4]: presented the antiviral activity
inhibitory effect on viral replication, added before viral adsorption [5]: almost no inhibitory effects
inhibitory effect, added during viral inoculation [5]: slight inhibitory effect
protective effect, added after viral adsorption [5]: significant protective effect
EC50 [6]: 18.1 ± 2.6 µM
mRNA expression of RIG-I, MAVS, TLR3, IRF3, IRF7 [7]: levels decreased
mRNA expression of cytokines and chemokines (IL-1β, IL-6, IL-8, TNF-α) ([7]; dose-dependent): significantly decreased
Inhibition ratio of lung index ([8]; 25 mg/kg/d intragastric, six days post infection): 11.35%
Lung Index ([8]; 25 mg/kg/d intragastric, six days post infection (virus control 1.70 ± 0.06)): 1.51 ± 0.06
Inhibition ratio of lung index [8, 18]: 28.47%
Lung Index [8, 18]: 1.22 ± 0.09
Inhibition ratio of lung index [8, 19]: 33.21%
Lung Index [8, 19]: 1.14 ± 0.05
clinical symptoms of infected mice [8]: relieve these symptoms
lung indexes versus virus control group (in words) ([8]; six days post infection): significantly lower than those in the virus control group
EC50 [9]: 24.1 ± 1.16 µM
EC50 [10]: 12.3 ± 0.53 µM
apoptosis rate ([11]; 30 µM, infected A549 cells (virus control 32.85 ± 3.05%)): 21.93 ± 0.97%
apoptosis rate ([11]; 50 µM, infected A549 cells): 15.17 ± 2.87%
apoptosis rate ([11]; 80 µM, infected A549 cells): 7.23 ± 1.30%
EC50 [12]: 12.3 to 24.1 µM
levels of NP mRNA in IAV-infected MDCK cells [13]: decrease in the levels of NP mRNA
viability at 72 h, 800 µM [14]: ~40%
CC50 at 72 h [14]: 365 ± 1.58 µM
expression of influenza M2 protein ([15]; 30, 50, 80 µM): inhibited
IAV-induced upregulation of Bax/Bcl-2 ([15]; A549 cells): reduced this upregulation
expressions of pro-inflammatory cytokines in mouse lungs [16]: inhibit the increased expressions of pro-inflammatory cytokines
levels of NP mRNA, time-of-addition [17]: significantly suppressed

CCOC(=O)C1=C[C@@H](OC(CC)CC)[C@H](NC(C)=O)[C@@H](N)C1 [Oseltamivir, reference compound]
SI (ratio of CC50 to EC50) [4]: >1403.51
EC50 [6]: 6.97 ± 0.38 µM
Inhibition ratio of lung index [8, 18]: 35.99%
Lung Index [8, 18]: 1.09 ± 0.12
clinical symptoms of infected mice [8]: relieve these symptoms
lung indexes versus virus control group (in words) ([8]; six days post infection): significantly lower than those in the virus control group
EC50 [9]: 9.47 ± 2.48 µM
EC50 [10]: 0.57 ± 0.29 µM
CC50 at 72 h [14]: > 800 µM
expressions of pro-inflammatory cytokines in mouse lungs [16]: inhibit the increased expressions of pro-inflammatory cytokines

NC(=O)c1ncn([C@@H]2O[C@H](CO)[C@@H](O)[C@H]2O)n1 [Ribavirin]
EC50 [6]: 13.9 ± 1.06 µM
clinical symptoms of infected mice [8]: relieve these symptoms
EC50 [9]: 13 ± 3.74 µM
EC50 [10]: 22.2 ± 0.76 µM
CC50 at 72 h [14]: 608 ± 34 µM
expressions of pro-inflammatory cytokines in mouse lungs [16]: inhibit the increased expressions of pro-inflammatory cytokines
